Measurements reported in EP1020531A2, “Use of spore adhesion assays in fungicide screening” (priority 1999, dated 2000).
≈ marks a conversion by molar mass, not a printed value.

Legend:
Puccinia recondita = experiment: Germination-associated spore adhesion assay in microtiter plates (sulforhodamine B); assay type: cell-based; conditions: for EC50 (ppm): inhibition of adhesion, 0.05% Tween 20, 19°C, 4 hours; for inhibition of germination-associated adhesion: statement in words
[1] = test system: Pyricularia oryzae appressoria; conditions: Inoue et al., Pesticide Science 19, 145-152 (1987); cited from earlier work
Botrytis cinerea spores [2] = experiment: Spore adhesion assay in polystyrene counting vials (Coulter Counter); assay type: cell-based; conditions: 25°C, 5.5 h; for EC50: Botrytis cinerea, read-out: Inhn. of Spore Adhesion (EC50, ppm) Counting vials
Method: (§1) Botrytis cinerea was grown at room temperature under fluorescent lights on potato dextrose agar (PDA), and subcultured every 14 days. To prepare spore suspensions, 20 ml sterile milliQ™ water was added to plates (10-14 days old) and the surface scraped gently with a sterile loop. The fluid was filtered through glass wool to remove mycelial fragments, then the spore density was adjusted to the desired concentration.
Various fungicides were evaluated for their abilities to inhibit germination-associated spore adhesion to polystyrene counting vials, polymethylpentene (Permanox®) chamber slides and 96-well flat-bottomed polystyrene microtiter plates, and for their effects on spore germination and mycelial growth (table below). Adhesion assays in chamber slides and germination assays were performed as in Example 1 with incubation at 25°C for 5.5 h. Adhesion assays in counting vials were conducted in 20 ml capacity polystyrene counting vials (VWR cat. no. 14310-640). Counting vials received 5 µl of DMSO (controls) or test compound dissolved in DMSO, followed by 500 µl of SDB. Aqueous spore suspension (500 µl) at 200,000 spores/ml was added, mixed gently and the vials or slides incubated at 25°C for 5.5 h. To determine the numbers of unbound spores 15 ml of counting fluid was added, vials were capped and inverted gently 5 times, then counted using a Coulter Counter®.

Botrytis cinerea spores [3] = experiment: Spore adhesion assay in 96-well polystyrene microtiter plates (sulforhodamine B); assay type: cell-based; conditions: 25°C, 5.5 hours; for EC50: Botrytis cinerea, read-out: Inhn. of Spore Adhesion (EC50, ppm) Microtiter plates
Method: as §1
(§2) For adhesion assays in microtiter plates, stock solutions of test compounds were prepared in DMSO then diluted in SDB such that the DMSO concentration after dilution was ≤2%. Two-fold serial dilutions of these test compound solutions were made in SDB (100 µl) in 96-well flat-bottomed microtiter plates. Spore suspension (100 µl at 2X10^5 spores/ml) was added to the wells, and the plates were incubated at 25°C for 5.5 hours. The medium containing unbound spores was removed by inverting and flicking the microtiter plate to remove as much liquid as possible.

Botrytis cinerea spores [4] = experiment: microbe, parasite or virus in culture; assay type: cell-based; conditions: 5.5 h; for EC50: Botrytis cinerea, read-out: Inhn. of Spore Adhesion (EC50, ppm) Chamber Slides
Botrytis cinerea spores [5] = experiment: Spore germination assay (microscopic examination); assay type: cell-based; conditions: 25°C, 5.5 h; for EC50: Botrytis cinerea, read-out: Inhn. of Germination EC50 (ppm)
Botrytis = experiment: Mycelial growth inhibition, poison agar assay; conditions: for EC50: Botrytis, 72 h, read-out: Mycelial Growth Inhn. EC50 (ppm)
Method: Inhibition of mycelial growth was evaluated in poison agar assays. A 4-fold dilution series of each fungicide to be tested was prepared in DMSO and 125 µl of each dilution was added to 25 ml of molten malt extract agar (20 g malt extract, 20 g glucose, 1 g peptone and 20 g agar per liter). The medium containing test compound was poured immediately into 9 cm diameter petri dishes. Two replicate plates were used for each treatment. Each plate was inoculated with a 7 mm diameter plug taken from the growing edge of a Botrytis culture on PDA. Colony diameters were measured after growth for 3 days in the dark at 25°C. EC50 values were determined from dose-response curves.

Magnaporthe grisea = assay type: cell-based; conditions: for EC50 (ppm): inhibition of adhesion, YEG, 25°C, 6 hours; for inhibition of germination-associated adhesion: statement in words
[6] = test system: Colletotrichum lagenarium spores; experiment: Spore adhesion assay in 96-well polystyrene microtiter plates; assay type: cell-based; conditions: for Inhn. of Adhesion (EC50, ppm) Microtiter plates: SDB with Tween 20 (40 ppm), 8 h
Method: as §2
Colletotrichum lagenarium was grown at 25°C in the dark on potato dextrose agar and subcultured every 7-14 days. To prepare spore suspensions, 15 ml sterile water was added to plates (7-10 days old) and the plates agitated gently on a gyrotary shaker for 10 min to release spores. The resulting spore suspension was filtered through glass wool and adjusted to the desired concentration. Spore adhesion assays and germination assays were conducted as outlined in Example 1 for Botrytis except that the SDB medium contained Tween™ 20 (40 ppm), and the spore inoculum was prepared at 5X10^5 spores/ml. Data in the table below show a time-dependent adhesion of spores to the slide which closely parallels the time-course for spore germination.
Various fungicides were evaluated for their abilities to inhibit spore adhesion in 96-well flat-bottomed polystyrene microtiter plates and Permanox® chamber slides, and for their effects on spore germination and mycelial growth. Assays were conducted as outlined in Example 2 for Botrytis except that the SDB medium contained Tween™ 20 (40 ppm), the spore inoculum was prepared at 5X10^5 spores/ml, and 8 h incubation was used for the adhesion and germination assays. For each compound tested, EC50 values for inhibition of adhesion to microtiter plates and chamber slides were similar. Spore adhesion was sensitive to all compounds which inhibited germination at low concentrations (<0.2 ppm).

[7] = test system: Colletotrichum lagenarium spores; assay type: cell-based; conditions: SDB with Tween 20 (40 ppm), 8 h
[8] = test system: Colletotrichum lagenarium spores; experiment: Spore germination assay; assay type: cell-based; conditions: for Germination EC50 (ppm): 8 h
[9] = test system: Colletotrichum lagenarium; experiment: Mycelial growth inhibition, poison agar assay; assay type: cell-based
Botrytis cinerea spores [10] = experiment: Spore adhesion to Plexiglas chamber slides; assay type: cell-based
Method: Assays were conducted in custom-made chamber slides made of Plexiglas®. Chamber slide wells received 5 µl of DMSO (controls) or kresoxim-methyl dissolved in DMSO, followed by 500 µl of SDB. Aqueous spore suspension (500 µl) at 200,000 spores/ml was added, mixed gently and the vials or slides incubated at 25°C for the desired period. The number of nonadhered spores was determined by transferring the fluid to a counting vial, washing the chamber slide well once by adding 1 ml of counting fluid to the well, shaking gently, and then adding the wash to the counting vial. Counting fluid (14 ml) was added to the vial, and the spores counted using a Coulter Counter®. The number of adhered spores was determined by subtracting the number of nonadhered spores from the total number of spores and was expressed as a percentage (% Adhesion).

Botrytis cinerea spores [11] = experiment: Spore adhesion to borosilicate glass vials; assay type: cell-based
Botrytis cinerea spores [12] = experiment: Spore adhesion to polyethylene vials; assay type: cell-based
Botrytis cinerea spores [13] = experiment: Spore adhesion to polypropylene vials; assay type: cell-based; conditions: 7 hours
[14] = test system: Aspergillus nidulans spores; experiment: Spore adhesion assay in 96-well polystyrene microtiter plates; assay type: cell-based; conditions: statement in words
Method: as §2
Various fungicides were evaluated for their abilities to inhibit spore adhesion in 96-well flat-bottomed polystyrene microtiter plates. Adhesion assays were conducted as outlined in Example 2 for Botrytis except that the spore inoculum was prepared at 2X10^6 spores/ml, and plates were incubated at 37°C for 8 h.

Candida albicans = conditions: dacron fibers; Vuddhakel et al. (1988); cited from earlier work

Molecule	EC50 (ppm) (Puccinia recondita)	inhibition of germination-associated adhesion (Puccinia recondita)	EC50 (Botrytis cinerea spores [2])	EC50 (Botrytis cinerea spores [3])	EC50 (Botrytis cinerea spores [4])	EC50 (Botrytis cinerea spores [5])	EC50 (Botrytis)	EC50 (ppm) (Magnaporthe grisea)	inhibition of germination-associated adhesion (Magnaporthe grisea)	further results
CC1=C(C(=O)Nc2ccccc2)SCCO1 [carboxin]	0.081 ppm	inhibited germination-associated adhesion	–	–	–	–	–	–	–	–
Cn1c(=O)sc2cccc(Cl)c21 [chlobenthiazone]	–	–	–	–	–	–	–	–	–	adhesion of Pyricularia oryzae appressoria to barley leaves [1]: inhibited adhesion
Cc1cc(C)nc(Nc2ccccc2)n1 [Pyrimethanil]	–	–	> 25 µg/mL	> 10 µg/mL	> 25 µg/mL	8.6 µg/mL (≈ 43.2 µM)	0.48 µg/mL (≈ 2.41 µM)	–	–	–
CCCN(CCOc1c(Cl)cc(Cl)cc1Cl)C(=O)n1ccnc1 [prochloraz]	–	–	–	–	–	–	–	>10.0 ppm	little or no activity	–
CCCCC(C#N)(Cn1cncn1)c1ccc(Cl)cc1 (stereo not drawn) [myclobutanil]	>10 ppm	little or no activity	–	–	–	–	–	–	–	–
CO/C=C(/C(=O)OC)c1ccccc1Oc1cc(Oc2ccccc2C#N)ncn1 [Azoxystrobin]	–	–	–	–	–	–	–	0.064 ppm	potent inhibitors of germination-associated adhesion	Inhn. of Spore Adhesion (EC50, ppm) Counting vials (Botrytis cinerea spores [2]): 0.19 ppm; Inhn. of Spore Adhesion (EC50, ppm) Microtiter plates (Botrytis cinerea spores [3]): 0.19 ppm; Inhn. of Spore Adhesion (EC50, ppm) Chamber Slides (Botrytis cinerea spores [4]; Permanox chamber slides, 25°C): 0.28 ppm; Inhn. of Germination EC50 (ppm) (Botrytis cinerea spores [5]): 0.32 ppm; Inhn. of Adhesion (EC50, ppm) Microtiter plates [6]: 0.027 ppm; Inhn. of Adhesion (EC50, ppm) Chamber slides [7]: 0.014 ppm; Germination EC50 (ppm) ([8]; 40 ppm): 0.010 ppm; Mycelial Growth Inhn. EC50 (ppm) [9]: >10 ppm; Mycelial Growth Inhn. EC50 (ppm) (Botrytis; malt extract agar, 3 days, 25°C): 3.05 ppm
Cc1cccc2sc3nncn3c12 [tricyclazole]	–	–	–	–	–	–	–	–	–	adhesion of Pyricularia oryzae appressoria to barley leaves [1]: inhibited adhesion
mancozeb	0.56 ppm	inhibited germination-associated adhesion	–	–	–	–	–	0.115 ppm	potent inhibitors of germination-associated adhesion	–
CO/N=C(/C(=O)OC)c1ccccc1COc1ccccc1C [Kresoxim-methyl]	0.016 ppm	inhibited germination-associated adhesion	0.014 µg/mL (≈ 0.0447 µM)	0.011 µg/mL (≈ 0.0351 µM)	0.035 µg/mL (≈ 0.112 µM)	0.02 µg/mL (≈ 0.0638 µM)	0.28 µg/mL (≈ 0.894 µM)	0.067 ppm	potent inhibitors of germination-associated adhesion	%Adhesion with kresoxim-methyl, 10 ppm (Botrytis cinerea spores [10]; 7 hours): 17.4%; %Adhesion with kresoxim-methyl, 10 ppm (Botrytis cinerea spores [10]; 8 hours): 26.2%; %Adhesion with kresoxim-methyl, 10 ppm (Botrytis cinerea spores [11]; 6 hours): 23.4%; %Adhesion with kresoxim-methyl, 10 ppm (Botrytis cinerea spores [11]; 7 hours): 29.6%; %Adhesion with kresoxim-methyl, 10 ppm (Botrytis cinerea spores [12]; 6 hours): 12.7%; %Adhesion with kresoxim-methyl, 10 ppm (Botrytis cinerea spores [12]; 7 hours): 15.1%; %Adhesion with kresoxim-methyl, 10 ppm (Botrytis cinerea spores [13]): 18.9%; Inhn. of Adhesion (EC50, ppm) Microtiter plates [6]: 0.026 ppm; Inhn. of Adhesion (EC50, ppm) Chamber slides [7]: 0.054 ppm; Germination EC50 (ppm) ([8]; SDB with Tween 20 (40 ppm)): 0.015 ppm; Mycelial Growth Inhn. EC50 (ppm) [9]: >10 ppm; inhibition of spore adhesion [14]: highly potent inhibitors of spore adhesion
COC(=O)NC(=S)Nc1ccccc1NC(=S)NC(=O)OC [thiophanate-methyl]	–	–	–	–	–	–	–	7.5 ppm	little or no activity	–
O=[N+]([O-])c1cc(C(F)(F)F)c(Cl)c([N+](=O)[O-])c1Nc1ncc(C(F)(F)F)cc1Cl [Fluazinam]	0.365 ppm	inhibited germination-associated adhesion	0.041 µg/mL (≈ 0.0882 µM)	0.051 µg/mL (≈ 0.11 µM)	0.071 µg/mL (≈ 0.153 µM)	0.028 µg/mL (≈ 0.0602 µM)	0.033 µg/mL (≈ 0.071 µM)	–	–	Inhn. of Adhesion (EC50, ppm) Microtiter plates [6]: <0.019 ppm; Inhn. of Adhesion (EC50, ppm) Chamber slides [7]: 0.007 ppm; Germination EC50 (ppm) ([8]; SDB with Tween 20 (40 ppm)): 0.004 ppm; Mycelial Growth Inhn. EC50 (ppm) [9]: 0.017 ppm; inhibition of spore adhesion [14]: highly potent inhibitors of spore adhesion
N#Cc1c[nH]cc1-c1cccc(Cl)c1Cl [Fenpiclonil]	–	–	0.096 µg/mL (≈ 0.405 µM)	0.09 µg/mL (≈ 0.38 µM)	1.89 µg/mL (≈ 7.97 µM)	< 0.0312 µg/mL	0.0015 µg/mL (≈ 0.00633 µM)	–	–	–
CCC(C)(C)c1ccc(CC(C)CN2C[C@@H](C)O[C@@H](C)C2)cc1 (stereo partly drawn) [amorolfine]	–	–	–	–	–	–	–	–	–	Candida adherence (Candida albicans): inhibit Candida adherence
Cc1nc(C(F)(F)F)c(C(=O)Nc2c(Br)cc(OC(F)(F)F)cc2Br)s1 [thifluzamide]	0.043 ppm	inhibited germination-associated adhesion	–	–	–	–	–	–	–	–
C=CC1(C)OC(=O)N(c2cc(Cl)cc(Cl)c2)C1=O (stereo not drawn) [Vinclozolin]	–	–	0.56 µg/mL (≈ 1.96 µM)	0.62 µg/mL (≈ 2.17 µM)	> 5 µg/mL	< 0.5 µg/mL	0.11 µg/mL (≈ 0.384 µM)	–	–	–
COC(=O)Nc1nc2ccccc2[nH]1 [Carbendazim]	–	–	–	> 10 µg/mL	–	> 25 µg/mL	0.045 µg/mL (≈ 0.235 µM)	–	–	Inhn. of Adhesion (EC50, ppm) Microtiter plates [6]: 1.96 ppm; activity in the spore adhesion assay ([6]; statement in words on adhesion to microtiter plates and chamber slides): little or no activity; Inhn. of Adhesion (EC50, ppm) Chamber slides [7]: >10 ppm; Germination EC50 (ppm) ([8]; SDB with Tween 20 (40 ppm)): >10 ppm; inhibition of germination ([8]; statement in words): did not inhibit germination; Mycelial Growth Inhn. EC50 (ppm) [9]: 0.060 ppm
N#CC(CCc1ccc(Cl)cc1)(Cn1cncn1)c1ccccc1 (stereo not drawn) [fenbuconazole]	9.2 ppm	little or no activity	–	–	–	–	–	–	–	–
N#Cc1c(Cl)c(Cl)c(Cl)c(C#N)c1Cl [Chlorothalonil]	0.473 ppm	inhibited germination-associated adhesion	0.093 µg/mL (≈ 0.35 µM)	0.1 µg/mL (≈ 0.376 µM)	0.089 µg/mL (≈ 0.335 µM)	0.067 µg/mL (≈ 0.252 µM)	0.35 µg/mL (≈ 1.32 µM)	0.038 ppm	potent inhibitors of germination-associated adhesion	Inhn. of Adhesion (EC50, ppm) Microtiter plates [6]: 0.068 ppm; Inhn. of Adhesion (EC50, ppm) Chamber slides [7]: 0.104 ppm; Germination EC50 (ppm) ([8]; SDB with Tween 20 (40 ppm)): 0.005 ppm; Mycelial Growth Inhn. EC50 (ppm) [9]: 7.10 ppm; inhibition of spore adhesion [14]: highly potent inhibitors of spore adhesion
CN(C)C(=S)SSC(=S)N(C)C [Thiram]	–	–	1.04 µg/mL (≈ 4.33 µM)	1.86 µg/mL (≈ 7.74 µM)	1.87 µg/mL (≈ 7.78 µM)	< 0.625 µg/mL	0.78 µg/mL (≈ 3.24 µM)	–	–	–
O=C1c2ccccc2C(=O)N1SC(Cl)(Cl)Cl [Folpet]	–	–	0.21 µg/mL (≈ 0.708 µM)	0.33 µg/mL (≈ 1.11 µM)	0.22 µg/mL (≈ 0.742 µM)	0.15 µg/mL (≈ 0.506 µM)	5.5 µg/mL (≈ 18.5 µM)	–	–	–
